The structures appear in SMILES notation.

One data set relates to LAPC-4. Briefly: MTT growth inhibition, prostate cancer cell line LAPC-4. The conditions noted are these: for IC50: Homo sapiens, LAPC4, MTT assay, average of three independent experiments. The data set is classed as cell-based, human. On the procedure:
This MTT assay was carried using human prostate cancer cell lines CWR22R, LAPC-4 and LnCap using Promega cell titer 96 nonradioactive cell proliferation kits. Cells were trypsinized and centrifuged at 1000 rpm for 5 minutes and the supernatant was aspirated. Cells were resuspended with HBSS to a concentration of 10^6/ml. Cell suspension was diluted in serum containing medium to plate 2000 cells/well/0.2 ml. Cell suspension was transferred to sterile solution basin. Cells were plated using multichannel pipette set at 200 μl and incubated overnight for attachment. One plate was prepared for day 0 MTT assay as follows: 100 μl of media was removed from each well using multichannel pipette and 15 μl of MTT reagent was added. Plates were incubated at 37° C. for 4 hrs. […] of STOP solution was added to each well and incubated at room temperature for 1 hour. Absorbance was measured at 570 and 650 nm on plate reader. All the media from the remaining plates were carefully removed and the cells were treated with the media containing drug. MTT assays were done on days 0, 3, 5 and 7. In the preliminary screening […] BPU sulfur analogs 6l, 6h, 6n, 7d and 8h were screened and their activity was compared with compound 1.
Compounds with significant inhibitory activity in pancreatic cancer cells were further evaluated against prostate cancer cell lines in the MTT assay, (Mosmann, T., J. Immunol. Methods 65:55-63 (1983)) and the results were compared to those for compound 1 (Table 3).
In general terms: Tetrazolium dyes change colour on reduction, which living cells bring about.

Another data set concerns Panc1005. Put plainly: MTT growth inhibition, pancreatic cell line Panc1005. It is filed as cell-based. The conditions noted are these: Homo sapiens, Panc1005; MTT assay, 96 h treatment; average of three independent experiments. How it is done: (§1) Eight of these analogs 6d, 6h, 6n, 6g, 7b, 7d, 8g, and 8h were tested for their cytotoxicity in seven pancreatic cell lines ASPC1, Panc1, Panc203, Panc430, Pane 1005, MiaPaca2, and HS766T using MTT assay. Cells were trypsinized, seeded at 5×10^3 cells/well in 96-well plate and allowed to grow for 24 hours before the treatment with exponential increasing concentrations of drugs in the presence of 10% FBS. After a 96-hours period of treatment, 20 μl of MTT solution (5 mg/ml in PBS) were added to each well, and the plates were then incubated for 3 hours at 37° C. Medium was then replaced with 100 μl of DMSO per well. Plates were shaken and the optical density was measured at 570 nm using a multiwell plate reader (Bio-Rad, Model 550, Bio-Rad Inc., Hercules, Calif.). Each experiment was performed in triplicate for each drug concentration and was carried out independently at least 3 times. The IC50 value was defined as the concentration needed for a 50% reduction in the absorbance calculated based on the survival curves. Response to drug treatment was assessed by standardizing treatment groups to untreated controls. Compounds activity was compared with compound 1.
(§2) Table 2 (Growth Inhibition of Pancreatic Cancer Cell Lines by BPU and BPTU Analogues (IC50) a) compares the cytotoxicity of a series of new derivatives against a panel of seven pancreatic cancer cell lines, as determined by MTT assay. See, Mosmann, T., J. Immunol. Methods 65:55-63 (1983).

Data set [1] can be described thus: In vivo dose-finding study. Conditions: for toxicity: 20 mg/kg and 30 mg/kg twice per week i.p., 4 weeks, six mice; for remaining animals that lost >15% of their weight: 50 mg/kg thrice per week i.p.; for mice that died in the 3rd week: mouse, in vivo. How it is done: Both compounds were explored by the i.p. route in cohorts of six mice each, with a duration of treatment of 4 weeks. […] Therefore, 50 mg/kg twice per week was explored. […] Therefore, the dose was escalated to 50 mg/kg thrice per week. In the 6n and 7d groups, respectively, two and one of the mice died in the 3rd week, and three of four and four of five of the remaining animals lost >15% of their weight. Thus, for 28-day efficacy studies following an i.p. route, we selected 50 mg/kg twice a week for both compounds.

For another data set, the system named is ASPC1. Put plainly: MTT growth inhibition, pancreatic cell line ASPC1. The data set is classed as cell-based. The conditions noted are these: Homo sapiens, ASPC1; MTT assay, 96 h treatment; average of three independent experiments. How it is done:
as §1, §2

The IC50 is the point on the concentration scale where inhibition reaches its midpoint. High values mean weaker potency in that assay, low ones greater potency in that assay. Take `O=C(NC(=O)c1ccccc1[N+](=O)[O-])Nc1ccc(Sc2ncc(Br)cn2)cc1` [Compound 6n, 1-[4-(5-Bromopyrimidin-2-ylsulfanyl)phenyl]-3-(2-nitrobenzoyl)-urea]: in the data set with LAPC-4, it took 0.05 µM to reach half-maximal inhibition (IC50). The same compound displayed an IC50 with Panc1005 of 10 µM. Moreover, in data set [1], the toxicity result is recorded as “not associated with noticeable toxicity”, the “remaining animals that lost >15% of their weight” value is recorded as “three of four” and the “mice that died in the 3rd week” value is reported as “two”. Further, in data set [1] (50 mg/kg twice per week i.p.), the “mice with a weight loss of 15% by the 4th week” value is on record as “One of six”. The same compound had an IC50 with ASPC1 of 1 µM.

Regarding `Nc1ccccc1C(=O)NC(=O)Nc1ccc(Sc2ncc(Br)cn2)cc1` [Compound 7d], in the data set with LAPC-4, the IC50 stood at 0.1 µM. For the same compound, the “increase in activity compared to 7c” value in the data set on LAPC-4 (LAPC-4) worked out at 7 fold. The compound further showed an IC50 with Panc1005 of 10 µM. For the same compound, in data set [1], the toxicity entry is listed as “not associated with noticeable toxicity”, the “remaining animals that lost >15% of their weight” value is reported as “four of five” and the “mice that died in the 3rd week” value is “one”. This compound also had an IC50 with ASPC1 of 0.45 µM.
